Measurements: patent US10398142B2, “Polycationic amphiphiles as antimicrobial agents” (priority 2013, dated 2019)
Entries after “also recorded” stand apart in the source; their conditions may differ. Read-outs that look alike come from different tables or passages of the source. Marks after values point to notes of the source that are not given here.

Tests used:
[1] = system: E. faecalis biofilms; assay: Minimum biofilm eradication concentration (MBEC), regrowth assay; assay type: cell-based, Enterococcus faecalis
Source text: (§1) A regrowth assay was used to establish the MBEC of a compound to evaluate the antibiofilm activity. See also H. Ceri, M. Olson, D. Morck, D. Storey, R. Read, A. Buret, B. Olson, Methods Enzymol. 2001, 337, 377.
(§2) Encouraged by the potency of the QACs against planktonic bacterial cells, the inventors then evaluated the efficacy of compound (12,2,12) against Staphylococcus aureus and Enterococcus faecalis biofilms. […] To both accurately evaluate the antibiofilm activity, a regrowth assay was utilized to establish the minimum biofilm eradication concentration (MBEC) of each compound.
(§3) Different biological assays were performed. For all biological assays, laboratory strains of methicillin-susceptible Staphylococcus aureus MSSA (SH1000), Enterococcus faecalis (OG1RF), Escherichia coli (MC4100), Pseudomonas aeruginosa (PAO1), community-acquired methicillin-resistant Staphylococcus aureus CA-MRSA (USA300-0114), and hospital-acquired methicillin-resistant Staphylococcus aureus HA-MRSA (ATCC 33591) were grown at 37° C. overnight from freezer stocks in 10 mL of the media indicated for each assay. All cultures, with the exception of E. faecalis, were grown with shaking at 250 rpm.
(§4) Minimum biofilm eradication concentration (MBEC) was also measured. To each well of a flat-bottomed 96-well plate (Corning 3370), 8 μL of overnight bacterial culture was brought to a volume of 200 μL with fresh media (BHI for S. aureus and MRSA, Todd Hewitt (TH) for E. faecalis). Plates were incubated statically for 24 hours at 37° C. to establish biofilms. After 24 hours, the wells were carefully emptied by inverting the plate and gently shaking. A pre-mixed solution of media and aqueous compound stock solution was added to each well and plates were incubated at 37° C. 16 hours after pre-established biofilms were treated with compound, the media from each well was removed, biofilms were washed three times with 200 μL PBS to remove planktonic cells, and biofilms were incubated overnight at 37° C. in 200 μL of fresh media to allow any viable cells to continue growing. The wells were then vigorously pipetted to resuspend the biofilm cells and the OD at 595 nm was measured using a plate reader (POLARstar Omega, BMG Labtech). Biofilms reaching a final OD of less than 0.1 were considered eradicated and the lowest concentration of antibiotic corresponded to the MBEC. Four replicates were completed for each concentration of compound as well as positive and negative controls.

[2] = system: Staphylococcus aureus MSSA (SH1000); assay: Minimum inhibitory concentration (MIC), broth microdilution; assay type: cell-based
Description: (§5) The term “minimum inhibitory concentration (MIC)” means the lowest concentration of an antimicrobial agent that will inhibit the visible growth of a microorganism after overnight incubation. MIC values against bacteria, for example, the Gram-positive Staphylococcus aureus and Enterococcus faecalis and the Gram-negative Escherichia coli and Pseudomonas aeruginosa were determined by standard methods.
(§6) With nearly three-dozen amphiphiles varying in structure and cationic nature synthesized, minimum inhibitory concentration (MIC) values against the Gram-positive Staphylococcus aureus and Enterococcus faecalis and the Gram-negative Escherichia coli and Pseudomonas aeruginosa were determined by standard methods. […] The commercially available antibacterial agent benzalkonium chloride (benzyldimethyldodecylammonium chloride, Bn,12) was tested for comparison. The broth microdilution for determining MIC values was performed as previously reported.
(§7) Different biological assays were performed. […] All cultures, with the exception of E. faecalis, were grown with shaking at 250 rpm.
(§8) Minimum inhibitory concentration (MIC) values against bacteria were measured using standard method. Compounds were serially diluted two-fold from an aqueous stock solution to yield twelve test concentrations. Overnight S. aureus, E. faecalis, E. coli, P. aeruginosa, CA-MRSA, and HA-MRSA cultures diluted to ca. 10^6 cfu/mL in Mueller-Hinton media and 100 μL were inoculated into each well of a U-bottom 96-well plate (BD Biosciences, BD351177) containing 100 μL of compound solution. Plates were incubated statically at 37° C. for 72 hours upon which time wells were evaluated visually for bacterial growth. The MIC was determined as the lowest concentration of compound resulting in no bacterial growth visible to the naked eye, based on the majority of three independent experiments. Positive and negative aqueous and media controls were conducted for each trial.

[3] = system: S. aureus (MSSA, SH1000) biofilms; assay: Minimum biofilm eradication concentration (MBEC), regrowth assay; assay type: cell-based, Staphylococcus aureus; details: for MBEC MSSA: Table 5, SH1000; for MBEC S. aureus: Table 2, pre-established biofilm, ± values varied between 50 and 100 μM for the six trials
Source text: as §1, §2, §3, §4

[4] = system: CA-MRSA (USA300-0114); assay: Minimum inhibitory concentration (MIC), broth microdilution; assay type: cell-based, Staphylococcus aureus; details: for MIC: read-out: MIC CA-MRSA; for potency against CA-MRSA strain possessing qacA/R (in words): compared with MSSA
Description: as §7, §8

[5] = system: HA-MRSA (ATCC 33591); assay: as above; assay type: cell-based, Staphylococcus aureus; details: for MIC: read-out: MIC HA-MRSA
Description: as §7, §8

[6] = system: CA-MRSA (USA300-0114) biofilms; assay: Minimum biofilm eradication concentration (MBEC), regrowth assay; assay type: cell-based, Staphylococcus aureus; details: Table 5; for MBEC CA-MRSA: USA300-0114
Description: as §1, §3, §4

[7] = system: red blood cells (defibrinated sheep blood); assay: Hemolysis assay (Lysis20); details: for Lysis20: Table 4, concentration at which less than 20% of red blood cells are lysed
Description: Hemolysis assays (Lysis20) were performed according to the procedure detailed in Peng, L., DeSousa, J., Su, Z., Novak, B. M., Nevzorov, A. A., Garland, E. R., and Melander, C., Inhibition of Acinetobacter baumannii biofilm formation on a methacrylate polymer containing a 2-aminoimidazole subunit, Chem. Comm. 2011, 47, 4896-4898. Defibrinated sheep blood was purchased from Hemostat Labs (DSB 100). Compounds representative of each class were serially diluted in sterile PBS from aqueous stock solutions and incubated with resuspended blood cells. The OD of the final suspensions were measured directly using plate reader. TritonX (1% by volume) served as a positive control (100% lysis marker) and sterile PBS served as a negative control (0% lysis marker).
Lysis20 indicates the concentration of compound (in μM) at which less than 20% of red blood cells are lysed.

[8] = system: Escherichia coli (MC4100); assay: Minimum inhibitory concentration (MIC), broth microdilution; assay type: cell-based; details: for MIC: read-out: MIC E. coli
Description: as §5, §6, §7, §8

[9] = system: Enterococcus faecalis (OG1RF); assay: as above; assay type: cell-based; details: for MIC: read-out: MIC E. faecalis
Description: as §5, §6, §7, §8

[10] = system: Pseudomonas aeruginosa (PAO1); assay: as above; assay type: cell-based; details: for MIC: read-out: MIC P. aeruginosa
Description: as §5, §6, §7, §8

[11] = Staphylococcus aureus, MSSA, Table 4, SH1000, read-out: MIC MSSA
[12] = Staphylococcus aureus, Table 4, USA300-0114
[13] = Staphylococcus aureus, Table 4, ATCC 33591
[14] = Table 4, SH1000, read-out: MIC MSSA
[15] = Table 2, pre-established biofilm, ± values varied between 50 and 100 μM for the six trials
[16] = Table 1, read-out: MIC S. aureus

MIC [2, 14] | MIC ([4]; Table 4, USA300-0114) | MIC ([5]; Table 4, ATCC 33591) | SMILES | MBEC E. faecalis ([1]; Table 5) | MBEC MSSA [3] | MBEC CA-MRSA [6] | Lysis20 [7] | other results
 |  |  | CCCCCCCCCC[N+](C)(C)CCCN(C)CCC[N+](C)(C)CCCCCCCCCC [10,3,0,3,10] | 50 µM | 150 ± 50 µM | 150 ± 50 µM | 32 µM | MIC [2, 11]: 1 µM; MIC [4, 12]: 2 µM; MIC [5, 13]: 2 µM; prokaryotic selectivity (lytic profile vs MIC, in words) ([7]; among the multiQACs evaluated): highest prokaryotic selectivity
 |  |  | CCCCCCCCCC[N+](C)(C)CCC[N+](C)(CC)CCC[N+](C)(C)CCCCCCCCCC [10,3,2,3,10] | 100 µM | 200 µM | 150 ± 50 µM | 32 µM | MIC [2, 11]: 2 µM; MIC [4, 12]: 2 µM; MIC [5, 13]: 2 µM; prokaryotic selectivity (lytic profile vs MIC, in words) ([7]; among the multiQACs evaluated): highest prokaryotic selectivity
1 µM | 1 µM | 0.5 µM | CCCCCCCCCCCC[N+](C)(C)CCN(C)CC[N+](C)(C)CCCCCCCCCCCC.[Br-].[Br-] [12,2,0,2,12] | 100 µM | 75 ± 25 µM | 100 µM | 8 µM | MBEC E. faecalis [1, 15]: 100 µM; MIC ([8]; Table 1): 1 µM; MIC ([8]; Table 3): 2 µM; MIC [2, 16]: 1 µM; MIC ([2]; Table 3, read-out: MIC S. aureus): 1 µM; MIC ([9]; Table 1): 2 µM; MIC ([9]; Table 3): 1 µM; MIC ([10]; Table 1): 4 µM; MIC ([10]; Table 3): 4 µM; MBEC S. aureus [3]: 75 ± 25^a μM
4 µM | 8 µM | 4 µM | CCCCCCCCCCCC[N+](C)(C)CCCN(C)C.[Br-] [12,3,0] | >200 µM | >200 µM | >200 µM | 32 µM | 
1 µM | 4 µM | 2 µM | CCCCCCCCCCCCCCCC[N+](C)(C)CCN(C)C.[Br-] [16,2,0] | 50 µM | 100 µM | >200 µM | 16 µM | 
1 µM | 2 µM | 1 µM | CCCCCCCCCCCC[n+]1cccc(-c2ccc[n+](CCCCCCCCCCCC)c2)c1.[Br-].[Br-] [MQ-12,12] | 100 µM | 100 µM | 100 µM | 8 µM | 
8 µM | 16 µM | 16 µM | CCCCCCCCCCCC[n+]1cccc(-c2ccc[n+](Cc3ccccc3)c2)c1.[Br-].[Br-] [MQ-12,Bn] | >200 µM | >200 µM | >200 µM | 125 µM | prokaryotic selectivity (lytic profile vs MIC, in words) [7]: highest prokaryotic selectivity
1 µM | 1 µM | 1 µM | CCCCCCCCCCCC[n+]1ccc(-c2ccc[n+](CCCCCCCCCCCC)c2)cc1.[Br-].[Br-] [PMQ-12,12] | 100 µM | 100 µM | 150 ± 50 µM | 8 µM | 
 |  |  | CCCCCCCCCCCC[n+]1ccc(-c2cc[n+](Cc3ccccc3)cc2)cc1 [PQ-12,Bn] | 200 µM | 200 µM | 200 µM | 125 µM | MIC ([2]; Staphylococcus aureus, MSSA, read-out: MIC MSSA): 4 µM; MIC ([4]; Staphylococcus aureus): 32 µM; potency against CA-MRSA strain possessing qacA/R (in words) [4]: elevated MICs; also recorded: decreased potency; MIC ([5]; Staphylococcus aureus): 16 µM; potency against HA-MRSA (in words) ([5]; compared with MSSA): elevated MICs; prokaryotic selectivity (lytic profile vs MIC, in words) ([7]; among the multiQACs evaluated): highest prokaryotic selectivity

SMILES | MIC [2, 14] | MIC ([4]; Table 4, USA300-0114) | MIC ([5]; Table 4, ATCC 33591) | MBEC E. faecalis ([1]; Table 5) | MBEC MSSA [3] | MBEC CA-MRSA [6] | Lysis20 [7] | other results
CCCCCCCCCC[N+](C)(C)CCCCCCCCCC.[Cl-] [10,10, reference compound] | 1 µM | 4 µM | 2 µM | >200 µM | 150 ± 50 µM | ≥200 µM | 16 µM | 
CCCCCCCCCCCC[N+](C)(C)CC[N+](C)(C)CC[N+](C)(C)CCCCCCCCCCCC.[Br-].[Br-].[I-] [12,2,1,2,12] | 1 µM | 1 µM | 1 µM | >200 µM | 200 µM | ≥200 µM | 16 µM | MBEC E. faecalis [1, 15]: 25 µM; MIC ([8]; Table 1): 0.5 µM; MIC E. coli ([8]; Table 3): 0.5-4^a μM; MIC [2, 16]: ≤0.25 µM; MIC S. aureus ([2]; Table 3): ≤0.25-4^a μM; MIC ([9]; Table 1): ≤0.25 µM; MIC E. faecalis ([9]; Table 3): ≤0.25-4^a μM; MIC ([10]; Table 1): 1 µM; MIC P. aeruginosa ([10]; Table 3): 1-8^a μM; MBEC S. aureus [3]: 50 µM
CCCCCCCCCCCC[n+]1ccc(-c2cc[n+](CCCCCCCCCCCC)cc2)cc1.[Br-].[Br-] [PQ-12,12] | 1 µM | 1 µM | 0.5 µM | 200 µM | 200 µM | 100 µM | 8 µM | 
CCCCCCCCCCCCCCCC[n+]1ccccc1.[Cl-] [Pyr,16, reference compound] | 0.5 µM | 16 µM | 1 µM | 50 µM | 50 µM | 200 µM | 8 µM | potency against CA-MRSA strain possessing qacA/R (in words) [4]: decreased potency; decrease in efficacy against MRSA biofilms compared to MSSA ([6]; MBEC): four-fold decrease in efficacy
